Results taken from patent US4877785A, “Non-peptidyl beta-succinamidoacyl aminodiols as anti-hypertensive agents” (G. D. Searle & Co., priority 1987, dated 1989).
Where a SMILES comes first, the peptide text is derived from it. [ ]: non-standard residue; d: D form. The star is where a group is joined. Sta = CC(C)C[C@H](N)[C@@H](O)CC(=O)O; Isovaleryl = CC(C)CC(=O)*

Key:
Human renin = molecular target: T1, Human renin (Homo sapiens, UniProt P00797); test: human renin inhibition test in vitro (angiotensin I determined by radioimmunoassay); format: biochemical; conditions: pH 7.4, 37° C., two hours, human plasma
T1 construct: purchased National Institute for Biological Standards, London
T1 sequence (P00797 67-406): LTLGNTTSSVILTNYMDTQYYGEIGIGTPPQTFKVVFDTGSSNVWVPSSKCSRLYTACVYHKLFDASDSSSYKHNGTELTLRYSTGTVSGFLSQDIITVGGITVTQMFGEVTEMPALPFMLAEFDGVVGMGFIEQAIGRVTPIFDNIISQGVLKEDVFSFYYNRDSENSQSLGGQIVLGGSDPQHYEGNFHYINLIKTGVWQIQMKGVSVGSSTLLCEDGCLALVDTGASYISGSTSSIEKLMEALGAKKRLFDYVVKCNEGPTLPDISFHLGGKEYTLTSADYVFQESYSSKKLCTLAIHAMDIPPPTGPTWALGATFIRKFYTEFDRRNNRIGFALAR
Method: Compounds of Formula I were evaluated as inhibitors of human renin in an in vitro assay, as follows: This human renin inhibition test has been previously described in detail [Papaioannou, et al., Clinical and Experimental Hypertension, A7(9), 1243-1257 (1985)]. Human renin was obtained from the National Institute for Biological Standards, London. In a total volume of 0.25 mL 100 mM Tris-acetate buffer at pH 7.4, 25×10^-6 Goldblatt units of renin, 0.05 mL of plasma from human volunteers taking oral contraceptives, 6.0 mM sodium EDTA, 2.4 mM phenylmethyl sulfonyl fluoride, 1.5 mM 8-hydroxyquinoline, 0.4 mg/mL BSA, and 0.024 mg/mL neomycin sulfate were incubated for two hours at 37° C. in the presence or absence of renin inhibitors. The produced angiotensin I was determined by radioimmunoassay (New England Nuclear kit). Compounds of formula I to be assayed were solubilized in either ethyl alcohol or DMSO and diluted with 100 mM Tris-acetate buffer at pH 7.4 to the appropriate concentration. The final concentration of organic solvent in the reaction mixture was less than 1%. Control incubations at 37° C. were used to correct for effects of organic solvent on renin activity.

pepsin = conditions: cited from earlier work
hog renin = conditions: after injection of hog renin into nephrectomized rats; cited from earlier work
renin = conditions: cited from earlier work
cathepsin D = conditions: cited from earlier work

IC50 (Human renin) | SMILES | inhibition of pepsin (pepsin) | reduction of blood pressure in vivo (hog renin) | inhibition of renin (renin) | inhibition of cathepsin D (cathepsin D)
330 nM | CC(C)C[C@H](O)[C@H](O)[C@H](CC1CCCCC1)NC(=O)C(C)CNC(=O)C(CC(=O)N1CCOCC1)Cc1cccc2ccccc12 (single isomer, unassigned; isomer a) [Example 11] | – | – | – | –
1000 nM | CC(C)C[C@H](O)[C@H](O)[C@H](CC1CCCCC1)NC(=O)C(C)CNC(=O)C(CC(=O)N1CCOCC1)Cc1cccc2ccccc12 (single isomer, unassigned; isomer b) [Example 13] | – | – | – | –
– | CC(C)CC(=O)N[C@H](C(=O)N[C@H](C(=O)N[C@@H](CC(C)C)[C@@H](O)CC(=O)N[C@@H](C)C(=O)N[C@@H](CC(C)C)[C@@H](O)CC(=O)O)C(C)C)C(C)C [pepstatin] (Isovaleryl-VV[Sta]A[Sta]-OH) | inhibitor | found to reduce blood pressure in vivo | inhibitor | inhibitor
